Assay results published in PMC5218480 (PLoS ONE, 2017).

System: MV-4-11 cells
Assay: Gene expression microarray analysis (Affymetrix PrimeView) and GSEA
Type: cell-based, human
Parameters: RFU PODN (11730768_x_at) / Fold change /veh PODN (11730768_x_at) / RFU LINC00158 (11744669_a_at) / Fold change /veh LINC00158 (11744669_a_at) / RFU DUSP10 (11751237_a_at) / Fold change /veh DUSP10 (11751237_a_at) / RFU ID3 (11757404_x_at) / Fold change /veh ID3 (11757404_x_at) / RFU PLEKHG5 (11737974_s_at) / Fold change /veh PLEKHG5 (11737974_s_at) / RFU LRRC4B (11730491_at) / Fold change /veh LRRC4B (11730491_at) / RFU GIMAP4 (11747438_a_at) / Fold change /veh GIMAP4 (11747438_a_at) / RFU KRT8 (11758183_x_at) / Fold change /veh KRT8 (11758183_x_at) / RFU CNN1 (11734310_a_at) / Fold change /veh CNN1 (11734310_a_at) / RFU VPS37D (11726825_at) / Fold change /veh VPS37D (11726825_at) / RFU C10orf10 (11716522_x_at) / Fold change /veh C10orf10 (11716522_x_at) / RFU KIR2DL2 /// KIR2DL4 /// KIR2DL5A /// KIR2DL5B /// KIR2DS1 /// KIR2DS2 /// KIR2DS3 /// KIR2DS4 /// KIR3DL3 /// KIR3DL3 /// KIR3DS1 (11738374_at) / Fold change /veh KIR2DL2 /// KIR2DL4 /// KIR2DL5A /// KIR2DL5B /// KIR2DS1 /// KIR2DS2 /// KIR2DS3 /// KIR2DS4 /// KIR3DL3 /// KIR3DL3 /// KIR3DS1 (11738374_at) / RFU C1QL1 (11718748_at) / Fold change /veh C1QL1 (11718748_at) / RFU TMPRSS4 (11747572_a_at) / Fold change /veh TMPRSS4 (11747572_a_at) / RFU HAMP (11756126_x_at) / Fold change /veh HAMP (11756126_x_at) / RFU RNFT2 (11725882_a_at) / Fold change /veh RNFT2 (11725882_a_at) / RFU NR4A2 (11747474_a_at) / Fold change /veh NR4A2 (11747474_a_at) / RFU ABCC12 (11746883_a_at) / Fold change /veh ABCC12 (11746883_a_at) / RFU TMEM136 (11760407_x_at) / Fold change /veh TMEM136 (11760407_x_at) / RFU CLDN22 /// WWC2 (11732394_at) / Fold change /veh CLDN22 /// WWC2 (11732394_at) / RFU HLA-DPB1 (11760878_x_at) / Fold change /veh HLA-DPB1 (11760878_x_at) / RFU SPINT1 (11716480_a_at) / Fold change /veh SPINT1 (11716480_a_at) / RFU GAP43 (11754022_s_at) / Fold change /veh GAP43 (11754022_s_at) / RFU A4GNT (11735810_at) / Fold change /veh A4GNT (11735810_at) / RFU PRB3 (11715151_x_at) / Fold change /veh PRB3 (11715151_x_at) / RFU TUBB4B (11761932_at) / Fold change /veh TUBB4B (11761932_at) / RFU CAPN14 (11732068_a_at) / Fold change /veh CAPN14 (11732068_a_at) / RFU TMCC2 (11721928_a_at) / Fold change /veh TMCC2 (11721928_a_at) / RFU IRGQ (11745062_a_at) / Fold change /veh IRGQ (11745062_a_at) / RFU FAM174B (11720279_a_at) / Fold change /veh FAM174B (11720279_a_at) / RFU TMPRSS4 (11748680_a_at) / Fold change /veh TMPRSS4 (11748680_a_at) / RFU FAM212B (11763350_a_at) / Fold change /veh FAM212B (11763350_a_at) / RFU PLEKHG5 (11743358_a_at) / Fold change /veh PLEKHG5 (11743358_a_at) / RFU ZSCAN30 (11745921_a_at) / Fold change /veh ZSCAN30 (11745921_a_at) / RFU CMKLR1 (11741424_a_at) / Fold change /veh CMKLR1 (11741424_a_at) / RFU LOC101060620 /// MAPK8IP1 (11723275_at) / Fold change /veh LOC101060620 /// MAPK8IP1 (11723275_at) / RFU SPTSSB (11747773_x_at) / Fold change /veh SPTSSB (11747773_x_at) / RFU PRSS12 (11739890_at) / Fold change /veh PRSS12 (11739890_at) / RFU BIN1 (11741810_x_at) / Fold change /veh BIN1 (11741810_x_at) / RFU WNT11 (11732464_a_at) / Fold change /veh WNT11 (11732464_a_at) / RFU C10orf10 (11716521_a_at) / Fold change /veh C10orf10 (11716521_a_at) / RFU C5orf56 (11738089_at) / Fold change /veh C5orf56 (11738089_at) / RFU CYB561 (11721691_x_at) / Fold change /veh CYB561 (11721691_x_at) / RFU ANKRD19P (11752326_a_at) / Fold change /veh ANKRD19P (11752326_a_at) / RFU OR2T12 /// OR2T33 /// OR2T8 (11738714_s_at) / Fold change /veh OR2T12 /// OR2T33 /// OR2T8 (11738714_s_at) / RFU VCAN (11748164_a_at) / Fold change /veh VCAN (11748164_a_at) / RFU JSRP1 (11732532_at) / Fold change /veh JSRP1 (11732532_at) / RFU KRTAP10-11 (11738290_x_at) / Fold change /veh KRTAP10-11 (11738290_x_at) / RFU MYO3A (11730013_a_at) / Fold change /veh MYO3A (11730013_a_at) / RFU EBF3 (11725865_a_at) / Fold change /veh EBF3 (11725865_a_at) / RFU CAMK2N1 (11719241_x_at) / Fold change /veh CAMK2N1 (11719241_x_at) / RFU C5orf56 (11738088_a_at) / Fold change /veh C5orf56 (11738088_a_at) / RFU OLFML3 (11715873_a_at) / Fold change /veh OLFML3 (11715873_a_at) / RFU LOC100653217 /// NTM (11731650_a_at) / Fold change /veh LOC100653217 /// NTM (11731650_a_at) / RFU MAPK11 (11762145_a_at) / Fold change /veh MAPK11 (11762145_a_at) / RFU FIZ1 (11724087_x_at) / Fold change /veh FIZ1 (11724087_x_at) / RFU OASL (11726364_x_at) / Fold change /veh OASL (11726364_x_at) / RFU SOX15 (11748057_x_at) / Fold change /veh SOX15 (11748057_x_at) / RFU CD79A (11719716_a_at) / Fold change /veh CD79A (11719716_a_at) / RFU HIST1H1D (11736915_at) / Fold change /veh HIST1H1D (11736915_at) / RFU CASKIN2 (11723855_a_at) / Fold change /veh CASKIN2 (11723855_a_at) / RFU LOC730098 (11760151_x_at) / Fold change /veh LOC730098 (11760151_x_at) / RFU OR4N2 (11742367_at) / Fold change /veh OR4N2 (11742367_at) / RFU PRRT2 (11749266_a_at) / Fold change /veh PRRT2 (11749266_a_at) / RFU SNX32 (11753110_a_at) / Fold change /veh SNX32 (11753110_a_at) / RFU CDHR5 (11726645_a_at) / Fold change /veh CDHR5 (11726645_a_at) / RFU RCAN1 (11760418_a_at) / Fold change /veh RCAN1 (11760418_a_at) / RFU FAM167A (11723789_a_at) / Fold change /veh FAM167A (11723789_a_at) / RFU FAM26E (11764081_at) / Fold change /veh FAM26E (11764081_at) / RFU ISYNA1 (11749810_s_at) / Fold change /veh ISYNA1 (11749810_s_at) / RFU ACY1 (11761880_at) / Fold change /veh ACY1 (11761880_at) / RFU 11764098_at / Fold change /veh 11764098_at / RFU SAMD14 (11745864_x_at) / Fold change /veh SAMD14 (11745864_x_at) / RFU NPB (11741838_a_at) / Fold change /veh NPB (11741838_a_at) / RFU TMPRSS6 (11731388_a_at) / Fold change /veh TMPRSS6 (11731388_a_at) / RFU KRTAP10-2 (11738614_at) / Fold change /veh KRTAP10-2 (11738614_at) / RFU ARHGAP8 /// PRR5-ARHGAP8 (11727945_x_at) / Fold change /veh ARHGAP8 /// PRR5-ARHGAP8 (11727945_x_at) / RFU KRTAP5-7 /// NADSYN1 (11734609_at) / Fold change /veh KRTAP5-7 /// NADSYN1 (11734609_at) / RFU RASL12 (11751679_a_at) / Fold change /veh RASL12 (11751679_a_at) / RFU CDKN2B (11736163_a_at) / Fold change /veh CDKN2B (11736163_a_at) / RFU PRF1 (11729649_at) / Fold change /veh PRF1 (11729649_at) / RFU, ZNF638 /// ZNF638-IT1 / Fold change vs veh, ZNF638 /// ZNF638-IT1 / RFU, PANK3 / Fold change vs veh, PANK3 / RFU, SH3YL1 / Fold change vs veh, SH3YL1 / RFU, ZEB2 / Fold change vs veh, ZEB2 / RFU, NRIP1 / Fold change vs veh, NRIP1 / RFU, PTTG1IP / Fold change vs veh, PTTG1IP / RFU, CAPN2 / Fold change vs veh, CAPN2 / RFU, MED14 / Fold change vs veh, MED14 / RFU, SNORA58 / Fold change vs veh, SNORA58 / RFU, C1orf63 / Fold change vs veh, C1orf63 / RFU, LRRFIP1 / Fold change vs veh, LRRFIP1 / RFU, NDUFAF7 / Fold change vs veh, NDUFAF7 / RFU, SLC12A2 / Fold change vs veh, SLC12A2 / RFU, IBTK / Fold change vs veh, IBTK / RFU, ESF1 / Fold change vs veh, ESF1 / Fold change vs veh, TMEM50B / RFU, TAOK1 / Fold change vs veh, TAOK1 / RFU, ACBD3 / Fold change vs veh, ACBD3 / RFU, TMA16 / Fold change vs veh, TMA16 / RFU, RWDD3 / Fold change vs veh, RWDD3 / RFU, BCAT1 / Fold change vs veh, BCAT1 / RFU, EDEM3 / Fold change vs veh, EDEM3 / RFU, TMEM33 / Fold change vs veh, TMEM33 / RFU, WDR75 / Fold change vs veh, WDR75 / RFU, AHCTF1 / Fold change vs veh, AHCTF1 / RFU, TFRC / Fold change vs veh, TFRC / RFU, ZDHHC17 / Fold change vs veh, ZDHHC17 / RFU, NOM1 / Fold change vs veh, NOM1 / RFU, ARL8B / Fold change vs veh, ARL8B / RFU, ZBTB11 / Fold change vs veh, ZBTB11 / RFU, TAMM41 / Fold change vs veh, TAMM41 / RFU, KIAA1704 /// LOC100996395 / Fold change vs veh, KIAA1704 /// LOC100996395 / RFU, ING1 / Fold change vs veh, ING1 / RFU, TRMT61B / Fold change vs veh, TRMT61B / RFU, FUBP3 / Fold change vs veh, FUBP3 / RFU, TP53 / Fold change vs veh, TP53 / RFU, TNKS2 / Fold change vs veh, TNKS2 / RFU, ZFP14 / Fold change vs veh, ZFP14 / RFU, ACTR2 / Fold change vs veh, ACTR2 / RFU, PPP3R1 / Fold change vs veh, PPP3R1 / RFU, PIK3R1 / Fold change vs veh, PIK3R1 / RFU, HNRNPA1 / Fold change vs veh, HNRNPA1 / RFU, RNF170 / Fold change vs veh, RNF170 / RFU, ZNF28 / Fold change vs veh, ZNF28 / RFU, RNGTT / Fold change vs veh, RNGTT / RFU, OGT / Fold change vs veh, OGT / RFU, BRD1 / Fold change vs veh, BRD1 / RFU, MARS / Fold change vs veh, MARS / RFU, ZNF655 / Fold change vs veh, ZNF655 / RFU, FAHD1 / Fold change vs veh, FAHD1 / RFU, BDP1 / Fold change vs veh, BDP1 / RFU, LRRCC1 / Fold change vs veh, LRRCC1 / RFU, ARID1A / Fold change vs veh, ARID1A / RFU, ZNF146 / Fold change vs veh, ZNF146 / RFU, ZNF330 / Fold change vs veh, ZNF330 / RFU, GPN3 / Fold change vs veh, GPN3 / RFU, C9orf123 / Fold change vs veh, C9orf123 / RFU, N4BP2L2 / Fold change vs veh, N4BP2L2 / RFU, ARFIP1 / Fold change vs veh, ARFIP1 / RFU, FAM179B / Fold change vs veh, FAM179B / RFU, BCL10 / Fold change vs veh, BCL10 / RFU, UHRF1BP1L / Fold change vs veh, UHRF1BP1L / RFU, BET1 / Fold change vs veh, BET1 / RFU, CNOT2 / Fold change vs veh, CNOT2 / RFU, ZNF268 / Fold change vs veh, ZNF268 / Fold change vs veh, ZNF507 / RFU, DGCR2 / Fold change vs veh, DGCR2 / RFU, WDSUB1 / Fold change vs veh, WDSUB1 / Fold change vs veh, HSP90B1 /// MIR3652 / RFU, ADSS / Fold change vs veh, ADSS / RFU, GK / Fold change vs veh, GK / RFU, ZNF148 / Fold change vs veh, ZNF148 / RFU, TAF9 / Fold change vs veh, TAF9 / RFU, SLC1A5 / Fold change vs veh, SLC1A5 / RFU, SLMO2 / Fold change vs veh, SLMO2 / RFU, ABCC4 / Fold change vs veh, ABCC4 / RFU, LOC101060439 /// RAP1B / Fold change vs veh, LOC101060439 /// RAP1B / RFU, RFX7 / Fold change vs veh, RFX7 / RFU, GTPBP10 / Fold change vs veh, GTPBP10 / RFU, CNEP1R1 / Fold change vs veh, CNEP1R1 / RFU, BIVM-ERCC5 /// ERCC5 / Fold change vs veh, BIVM-ERCC5 /// ERCC5 / RFU, ILF3 / Fold change vs veh, ILF3 / RFU 11762660_at / Fold change /veh 11762660_at / RFU VCAN (11757783_s_at) / Fold change /veh VCAN (11757783_s_at) / RFU DDX43 (11728927_at) / Fold change /veh DDX43 (11728927_at) / RFU KRT8 (11758188_x_at) / Fold change /veh KRT8 (11758188_x_at) / RFU NKD1 (11759106_at) / Fold change /veh NKD1 (11759106_at) / RFU SRD5A1 (11742802_a_at) / Fold change /veh SRD5A1 (11742802_a_at) / RFU TPSAB1 /// TPSB2 (11721975_s_at) / Fold change /veh TPSAB1 /// TPSB2 (11721975_s_at) / RFU GSTM3 (11746129_a_at) / Fold change /veh GSTM3 (11746129_a_at) / RFU IL23R (11737362_x_at) / Fold change /veh IL23R (11737362_x_at) / RFU TMEM51 (11727254_a_at) / Fold change /veh TMEM51 (11727254_a_at) / RFU PIWIL2 (11732686_x_at) / Fold change /veh PIWIL2 (11732686_x_at) / RFU ORM1 (11744905_x_at) / Fold change /veh ORM1 (11744905_x_at) / RFU CCDC152 (11743942_at) / Fold change /veh CCDC152 (11743942_at) / RFU ECM1 (11717891_a_at) / Fold change /veh ECM1 (11717891_a_at) / RFU IL23R (11748794_a_at) / Fold change /veh IL23R (11748794_a_at) / RFU TNFAIP8L3 (11732012_x_at) / Fold change /veh TNFAIP8L3 (11732012_x_at) / RFU MBOAT4 (11741988_at) / Fold change /veh MBOAT4 (11741988_at) / RFU 11764193_at / Fold change /veh 11764193_at / RFU TMEM53 (11763286_at) / Fold change /veh TMEM53 (11763286_at) / RFU MAGEB2 (11727129_at) / Fold change /veh MAGEB2 (11727129_at) / RFU TMEM200A (11744735_a_at) / Fold change /veh TMEM200A (11744735_a_at) / RFU CCDC152 (11751479_a_at) / Fold change /veh CCDC152 (11751479_a_at) / RFU FAM211A (11726209_a_at) / Fold change /veh FAM211A (11726209_a_at) / RFU RGS16 (11746705_a_at) / Fold change /veh RGS16 (11746705_a_at) / RFU VCAN (11755009_s_at) / Fold change /veh VCAN (11755009_s_at) / RFU RHOB (11743442_s_at) / Fold change /veh RHOB (11743442_s_at) / RFU RGS16 (11720943_a_at) / Fold change /veh RGS16 (11720943_a_at) / RFU RGS16 (11720944_at) / Fold change /veh RGS16 (11720944_at) / RFU, VPS4B / Fold change vs veh, VPS4B / RFU, CREB1 / Fold change vs veh, CREB1 / RFU, DNAJC13 / Fold change vs veh, DNAJC13 / RFU, GNAQ / Fold change vs veh, GNAQ / RFU, CDK5R1 / Fold change vs veh, CDK5R1 / RFU, ZRANB3 / Fold change vs veh, ZRANB3 / RFU, CUL4A / Fold change vs veh, CUL4A / RFU, CCNY / Fold change vs veh, CCNY / RFU, UFL1 / Fold change vs veh, UFL1 / RFU, COG3 / Fold change vs veh, COG3 / RFU, DIAPH2 / Fold change vs veh, DIAPH2 / RFU, SKA2 / Fold change vs veh, SKA2 / RFU, AFF3 / Fold change vs veh, AFF3 / RFU, LMF1 / Fold change vs veh, LMF1 / RFU, IPO11 / Fold change vs veh, IPO11 / RFU, DFFB / Fold change vs veh, DFFB / RFU, FOXP1 / Fold change vs veh, FOXP1 / RFU, CARD8 / Fold change vs veh, CARD8 / RFU, STRN3 / Fold change vs veh, STRN3 / RFU, ADK / Fold change vs veh, ADK / RFU, RASSF2 / Fold change vs veh, RASSF2 / RFU, WIPF1 / Fold change vs veh, WIPF1 / RFU, LARP1B / Fold change vs veh, LARP1B / RFU, RASA1 / Fold change vs veh, RASA1 / RFU, RB1 / Fold change vs veh, RB1 / RFU, PPFIA1 / Fold change vs veh, PPFIA1 / RFU, MAT2A / Fold change vs veh, MAT2A / RFU, CCT5 / Fold change vs veh, CCT5 / RFU, WDR92 / Fold change vs veh, WDR92 / RFU, CUX1 / Fold change vs veh, CUX1 / RFU, TTC7A / Fold change vs veh, TTC7A / RFU, TMEM135 / Fold change vs veh, TMEM135 / RFU, DEPTOR / Fold change vs veh, DEPTOR / RFU, CPM / Fold change vs veh, CPM / RFU, DNAJB6 / Fold change vs veh, DNAJB6 / RFU, CACNA2D3 / Fold change vs veh, CACNA2D3 / RFU, DTX4 / Fold change vs veh, DTX4 / RFU, TFCP2 / Fold change vs veh, TFCP2 / RFU, GMCL1 /// GMCL1P1 / Fold change vs veh, GMCL1 /// GMCL1P1 / RFU, AEBP2 / Fold change vs veh, AEBP2 / RFU, SNHG1 /// SNORD22 /// SNORD25 /// SNORD26 /// SNORD27 /// SNORD28 /// SNORD29 /// SNORD31 / Fold change vs veh, SNHG1 /// SNORD22 /// SNORD25 /// SNORD26 /// SNORD27 /// SNORD28 /// SNORD29 /// SNORD31 / Fold change (Aza/veh), C12orf56 (ProbeSet 11735607_a_at) / Fold change (ACY-1035/veh), C12orf56 (ProbeSet 11735607_a_at) / Fold change (Aza/veh), FGFR1OP (ProbeSet 11751329_s_at) / Fold change (ACY-1035/veh), FGFR1OP (ProbeSet 11751329_s_at) / Fold change (Aza/veh), VPS36 (ProbeSet 11739960_a_at) / Fold change (ACY-1035/veh), VPS36 (ProbeSet 11739960_a_at) / RFU SYPL1 (11715823_x_at) / Fold change /veh SYPL1 (11715823_x_at) / RFU IGFBP7 (11715501_s_at) / Fold change /veh IGFBP7 (11715501_s_at) / RFU REEP3 (11722064_at) / Fold change /veh REEP3 (11722064_at) / RFU IGLL1 (11728026_x_at) / Fold change /veh IGLL1 (11728026_x_at): dose or concentration left out as unconfirmed
Details: MV-4-11 cells, 48 hours

Nc1ccc(-c2cccs2)cc1NC(=O)c1ccc2c(c1)cc(C1CC1)n2CCN1CCOCC1 [ACY-1035]
RFU CD79A (11719716_a_at): 10.45 RFU
